We go through one substance from patent US11634466B2, “Musclin peptides and methods of use thereof” (UNIVERSITY OF IOWA RESEARCH FOUNDATION, priority 2016, dated 2023).

One test concerns WT and Ostn-KO mice. Nature of the test: VO2 max / oxygen consumption on metabolic treadmill (indirect calorimetry) after musclin infusion. Format: in vivo. The following applies: for oxygen consumption, VO2, over time upon initiation of treadmill exercise: 3 weeks of musclin by osmotic pump. From the text:
Natriuretic peptide/cGMP signaling is increasingly recognized as a key regulator of metabolic homeostasis, including effects on skeletal muscle mitochondrial biogenesis and oxidative phosphorylation potential. Maximal aerobic capacity (VO2 max) is commonly used to estimate overall aerobic fitness based on cardiopulmonary function and oxidative phosphorylation potential. To determine whether musclin production impacts aerobic capacity as a potential mechanism underlying differences in exercise tolerance, exercise-trained Ostn-KO and WT mice were monitored on a metabolic treadmill equipped for indirect calorimetry (Columbus instruments, Columbus Ohio). After 5 days of training, mice were placed on the stationary treadmill for 30 minutes and then were exposed to the protocol of escalating exercise workload to determine their VO2 max. […] To assess this, electron micrographs of longitudinal sections through tibialis anterior of exercised mice were examined and appear to show smaller mitochondrial size in the Ostn-KO compared to WT mice (FIG. 6B). […] Furthermore, disruption of normal musclin signaling appears to impact fiber type composition. Specifically, histologic examination of skeletal muscles from Ostn-KO vs. WT mice indicates a shift towards more pure glycolytic type IIb fibers in the KO (FIGS. 10A-10B). Differences between sedentary WT and Ostn-KO mice were less marked (FIGS. 11A-11G), which were consistent with the findings that exercise augments musclin signaling in the WT mice. […] The pattern of distribution of fiber types from muscles of sedentary WT and Ostn-KO was similar to that of their exercise-trained counterparts, consistent with a slower adaptation of fiber type to exercise, except that there was a slightly more prominent component of type IIA fibers in exercised mice (FIG. 12, n=4 each for tibialis anterior and n=3 each for biceps femoris, *p<0.05).
Whole body composition was obtained by time-domain nuclear magnetic resonance under isoflurane anesthesia (Bruker Minispec; Billerica, Mass.). […]
A multi-lane treadmill (Columbus Instruments, Columbus, Ohio) was used to simultaneously exercise model mice with their controls. […] For indirect calorimetry, oxygen consumption (VO2) and CO2 generation were measured using a two-lane modular treadmill connected to the Oxymax indirect calorimetry system (Columbus Instruments, Inc.). […]

Another test addresses T1, NPRB (Homo sapiens, UniProt P20594).
T1 sequence (P20594 23-1047): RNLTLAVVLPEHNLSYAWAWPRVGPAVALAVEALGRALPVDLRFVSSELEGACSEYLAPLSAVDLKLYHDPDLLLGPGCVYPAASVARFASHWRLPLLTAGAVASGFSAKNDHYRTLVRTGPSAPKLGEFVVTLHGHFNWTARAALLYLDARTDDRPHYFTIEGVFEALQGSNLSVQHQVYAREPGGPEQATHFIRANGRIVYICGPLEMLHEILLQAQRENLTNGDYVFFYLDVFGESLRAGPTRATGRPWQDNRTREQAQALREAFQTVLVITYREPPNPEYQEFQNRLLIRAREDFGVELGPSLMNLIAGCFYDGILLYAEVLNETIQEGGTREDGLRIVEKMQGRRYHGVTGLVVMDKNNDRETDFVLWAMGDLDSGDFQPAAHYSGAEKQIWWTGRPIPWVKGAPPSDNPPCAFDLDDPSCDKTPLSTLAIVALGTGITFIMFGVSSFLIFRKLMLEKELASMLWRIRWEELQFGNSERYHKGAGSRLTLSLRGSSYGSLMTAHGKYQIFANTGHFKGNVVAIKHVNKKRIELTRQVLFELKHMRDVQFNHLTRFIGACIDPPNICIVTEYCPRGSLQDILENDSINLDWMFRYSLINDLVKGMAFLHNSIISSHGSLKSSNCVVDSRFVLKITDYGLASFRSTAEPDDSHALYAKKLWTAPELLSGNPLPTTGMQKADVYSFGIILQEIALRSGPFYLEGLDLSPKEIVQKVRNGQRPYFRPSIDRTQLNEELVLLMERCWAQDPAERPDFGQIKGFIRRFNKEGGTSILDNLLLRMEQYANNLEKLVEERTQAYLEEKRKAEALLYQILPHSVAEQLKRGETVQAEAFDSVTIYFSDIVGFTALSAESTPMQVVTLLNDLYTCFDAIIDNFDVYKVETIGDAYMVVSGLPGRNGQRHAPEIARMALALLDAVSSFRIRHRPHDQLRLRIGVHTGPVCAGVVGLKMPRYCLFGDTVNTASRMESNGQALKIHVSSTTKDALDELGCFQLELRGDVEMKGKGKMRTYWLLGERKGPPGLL
The following applies: background statement; without activating the linked guanylyl cyclase; cited from earlier work.

Test [1] addresses T2, NP clearance receptor, NPRC (Homo sapiens, UniProt P17342).
T2 sequence (P17342 27-541): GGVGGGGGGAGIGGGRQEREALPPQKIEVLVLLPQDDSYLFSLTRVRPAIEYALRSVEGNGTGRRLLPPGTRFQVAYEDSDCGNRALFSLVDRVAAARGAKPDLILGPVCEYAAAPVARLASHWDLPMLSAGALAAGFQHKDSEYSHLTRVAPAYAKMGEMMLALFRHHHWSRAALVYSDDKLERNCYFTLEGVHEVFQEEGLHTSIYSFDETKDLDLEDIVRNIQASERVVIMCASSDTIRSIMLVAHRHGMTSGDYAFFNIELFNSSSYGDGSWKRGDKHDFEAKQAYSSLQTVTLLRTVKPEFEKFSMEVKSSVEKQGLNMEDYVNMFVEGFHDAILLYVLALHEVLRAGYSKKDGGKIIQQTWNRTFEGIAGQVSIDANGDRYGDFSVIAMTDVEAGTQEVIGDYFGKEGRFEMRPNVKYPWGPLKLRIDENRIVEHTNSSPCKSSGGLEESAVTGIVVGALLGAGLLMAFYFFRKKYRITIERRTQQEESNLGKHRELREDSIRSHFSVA
The following applies: background statement; cited from earlier work.

For “H-SFSGFGSPLDRLSAGSVEHRGKQRKAVDHSKKR-OH [musclin]”, the VO2 max was 136.6 ± 1.67 mL/min/kg with WT and Ostn-KO mice (Ostn-KO mice after 3 weeks of musclin infusion via osmotic pumps, n=3); 133.9 ± 1.28 mL/min/kg in the test on WT and Ostn-KO mice (WT mice after 3 weeks of musclin infusion via osmotic pumps, n=4). The “oxygen consumption, VO2, over time upon initiation of treadmill exercise” value in the test with WT and Ostn-KO mice (Ostn-KO mice, vs. WT treated with saline) is “better than WT treated with saline once steady state was achieved”; in the test with WT and Ostn-KO mice (WT mice, vs. WT mice treated with saline), “slightly better for several time points”. In addition, at NPRB, the “binding to NPRB” value is recorded as “weak binding”. For the same substance, the “binding to NPRC” value in test [1] is “affinity comparable to NPs”.
